The results in this text go back to patent US20030234356A1, “Method and apparatus for the detection of noncovalent interactions by mass spectrometry-based diffusion measurements” (priority 2002, published 2003).

The target of one assay is T1, lysozyme (Gallus gallus, UniProt P00698).
T1 construct: purchased Sigma (St. Louis, Mo.)
Put plainly: ESI-MS Taylor dispersion screen of a mixture of six sugars for noncovalent binding to lysozyme. Conditions: six sugars monitored simultaneously. As to the method: (§1) Based on the theoretical considerations described above, we will now describe details of an apparatus that allows the measurement of dispersion profiles by ESI-MS or APCI-MS. A schematic diagram of the apparatus is shown generally at 10 in FIG. 2. The measurements described below were carried out by using a 3.013 m long Teflon laminar flow tube (Upchurch, Oak Harbor, Wash.) shown as LFT or 12 in FIG. 2. The inner diameter (i.d.) of this LFT was determined gravimetrically to be 258.2 μm. In order to measure a diffusion coefficient, a sharp initial boundary must be created between the carrier solution and the following analyte solution at the entrance of the flow tube (Equation 3). This was accomplished by using a valve mechanism shown in FIG. 2 as a “sliding block mechanism (SBM)” 14 developed by the inventors. The laminar flow tube (LFT) 12 is inserted into a Teflon block machined to accommodate a PEEK connector and ferrule (Upchurch, Oak Harbor, Wash.) so that the flow tube 12 extends through to the end of the block. Initially, the entrance to the flow tube 12 is aligned with an opening in a steel block into which a piece of PEEK tubing 16 (508 μm ID, length ≈0.5 m) is fitted, using another PEEK connector and ferrule. This second piece of tubing 16 is used as the inlet tube, forming a leak-proof connection between the inlet tube and the flow tube at the boundary between the steel and Teflon blocks.
An analyte reservoir 18 (shown as a syringe in FIG. 2 which also acts as a pump) connected to the inlet tube 16 can be used to fill the inlet tube 16 with analyte solution, and to pump this analyte solution through the LFT 12. Initially, however, a carrier solution reservoir (not shown) is connected to tube 16 for filling the laminar flow tube 12 with carrier solution. The analyte solution and carrier solution reservoirs are never connected to the laminar flow tube 16 at the same time. Subsequently, the Teflon block containing the flow tube is moved sideways, such that the two tubes 12 and 16 are no longer aligned and the entrance to the flow tube 12 is closed off by the steel block. The inlet tube 16 can now be filled with analyte solution from pump 18 (syringe S1) without disturbing the carrier solution in the flow tube 12. Then the Teflon block is returned to its original position, aligning the two tubes (12 and 16) and creating a sharp boundary between the analyte solution in the inlet tube and the carrier solution in the LFT 12. The i.d. of the inlet tube 16 was chosen to be larger than that of the flow tube 12 to ensure that the boundary between the two solutions would cover the entire cross-sectional area of the flow tube 12, even if the sliding block were slightly misaligned. […]

A further assay concerns the target T2, apo-myoglobin (Equus caballus, UniProt P68082).
T2 construct: purchased Sigma (St. Louis, Mo.)
Briefly: ESI-MS Taylor dispersion (diffusion) measurement of noncovalent heme-protein binding in myoglobin. Conditions: for noncovalent binding of heme to the protein: 24±1° C. The method, then:
as §1
An analyte reservoir 18 (shown as a syringe in FIG. 2 which also acts as a pump) connected to the inlet tube 16 can be used to fill the inlet tube 16 with analyte solution, and to pump this analyte solution through the LFT 12. Initially, however, a carrier solution reservoir (not shown) is connected to tube 16 for filling the laminar flow tube 12 with carrier solution. The analyte solution and carrier solution reservoirs are never connected to the laminar flow tube 16 at the same time. Subsequently, the Teflon block containing the flow tube is moved sideways, such that the two tubes 12 and 16 are no longer aligned and the entrance to the flow tube 12 is closed off by the steel block. The inlet tube 16 can now be filled with analyte solution from pump 18 (syringe S1) without disturbing the carrier solution in the flow tube 12. Then the Teflon block is returned to its original position, aligning the two tubes (12 and 16) and creating a sharp boundary between the analyte solution in the inlet tube and the carrier solution in the LFT 12. The i.d. of the inlet tube 16 was chosen to be larger than that of the flow tube 12 to ensure that the boundary between the two solutions would cover the entire cross-sectional area of the flow tube 12, even if the sliding block were slightly misaligned. The use of a commercially available HPLC injection valve with a sample loop of suitable size may serve the same purpose as the described sliding block mechanism.
For the four examples given below, the analyte solution from syringe S1 is pumped through the laminar flow tube by using a Harvard syringe pump (South Nattick, Mass.). The outlet of the flow tube 12 is connected to two fused silica capillaries 26 and 28 (i.d. 100 μm, o.d. 165 μm, Polymicro Technologies, Phoenix, Ariz.) at a mixer 30 located at the end of tube 12. The first of these capillaries 26 has a length of 5 cm and is connected to the ESI source of the mass spectrometer 22. For studies on myoglobin, the second capillary 28 was used to supplement the analyte near the end of the laminar flow tube 12 with a methanol/acetic acid (90:10 v/v) mixture from syringe S2 just before it reached the ESI ion source. This “make-up” solvent was delivered at a flow rate of 5 μL/min, for a total flow rate of 10 μL/min at the ion source. The residence time of the analyte solution in the final 5 cm capillary was only about 2 s and can therefore be neglected for the analysis (the value of l/{overscore (v)} is 1929 s). […]

Where [1] appears, read: absence vs presence of lysozyme.
[2] abbreviates: denaturing conditions (50% acetonitrile, pH 10).
[3] abbreviates: native-like solvent conditions (no organic cosolvents, pH 10).
Setting [4] is: semi-denaturing conditions (30% acetonitrile, pH 10).

“Also recorded” adds a separate entry of the source.

T2 sequence (P68082 2-154 limits assumed): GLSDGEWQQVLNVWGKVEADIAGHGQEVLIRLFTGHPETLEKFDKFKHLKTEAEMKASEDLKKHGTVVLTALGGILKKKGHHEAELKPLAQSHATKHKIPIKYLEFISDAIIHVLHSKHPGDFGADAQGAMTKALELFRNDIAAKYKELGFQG
T1 sequence (P00698 19-147): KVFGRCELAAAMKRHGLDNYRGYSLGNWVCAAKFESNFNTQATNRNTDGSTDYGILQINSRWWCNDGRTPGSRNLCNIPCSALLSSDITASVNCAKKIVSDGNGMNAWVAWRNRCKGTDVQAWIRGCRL

On to `CC(=O)N[C@H]1[C@H](O[C@H]2[C@H](O)[C@@H](NC(C)=O)C(O)O[C@@H]2CO)O[C@H](CO)[C@@H](O[C@@H]2O[C@H](CO)[C@@H](O)[C@H](O)[C@H]2NC(C)=O)[C@@H]1O` (stereo partly shown) [chitotriose], for which the “change in dispersion profile when the protein was added” value at lysozyme (setting [1]) is on record as “distinct change”. Moreover, the “change of apparent diffusion coefficient upon addition of the protein” value at lysozyme (absence vs presence of lysozyme, average of about ten measurements) was “dramatic reduction; also recorded: significant change”. Besides, the “noncovalent binding to lysozyme” value at lysozyme (without and with lysozyme) is “binds noncovalently to lysozyme”.
For the compound `C=CC1=C(C)c2cc3[n-]c(cc4[n-]c(cc5nc(cc1n2)C(C)=C5C=C)c(C)c4CCC(=O)O)c(CCC(=O)O)c3C.[Fe+2]` [heme], the “fitted diffusion coefficient of heme compared with that of the protein in myoglobin solution” value on apo-myoglobin (setting [2]) is “much larger diffusion coefficient”; at apo-myoglobin (setting [3]), “agree closely with each other”; at apo-myoglobin (setting [4]) it was “almost identical”. Moreover, the “noncovalent binding of heme to the protein” value on apo-myoglobin (setting [2]) was “absent or extremely weak”; at apo-myoglobin (setting [3]), “noncovalently bound to the protein”; on apo-myoglobin (setting [4]), “still bound to each other”.
Turning to `C[C@H](O)[C@H](O)[C@@H](O)[C@@H](O)C=O` [rhamnose], at lysozyme (setting [1]), the “change in dispersion profile when the protein was added” value is given as “virtually no change”.
